# Experimental data from the kinase profiling compilation of Christmann-Franck et al. (2016).
# Experiments:
# Assay in all cases: KINOMEscan competition binding
# Conditions in all cases: compound 10.0 µM
# MAPKAPK5 (human) = MAPKAPK5 (human) (UniProt Q8IW41)
# IKBKE (human) = IKBKE (human) (UniProt Q14164)
# ERBB4 (human) = ERBB4 (human) (UniProt Q15303)
# PLK3 (human) = PLK3 (human) (UniProt Q9H4B4)
# ADCK3 (human) = ADCK3 (human) (UniProt Q8NI60)
# MAP3K3 (human) = MAP3K3 (human) (UniProt Q99759)
# MAPK1 (human) = MAPK1 (human) (UniProt P28482)
# MAPK6 (human) = MAPK6 (human) (UniProt Q16659)
# PIP5K1A (human) = PIP5K1A (human) (UniProt Q99755)
# AKT1 (human) = AKT1 (human) (UniProt P31749)
# AKT2 (human) = AKT2 (human) (UniProt P31751)
# FES (human) = FES (human) (UniProt P07332)
# CDK11B (human) = CDK11B (human) (UniProt P21127)
# TAOK3 (human) = TAOK3 (human) (UniProt Q9H2K8)
# LTK (human) = LTK (human) (UniProt P29376)
# MAPK15 (human) = MAPK15 (human) (UniProt Q8TD08)
# MARK3 (human) = MARK3 (human) (UniProt P27448)
# [1] = system: KIT (human), P10721 [D816V]
# MAPK11 (human) = MAPK11 (human) (UniProt Q15759)
# TGFBR2 (human) = TGFBR2 (human) (UniProt P37173)
# LIMK2 (human) = LIMK2 (human) (UniProt P53671)
# EPHB3 (human) = EPHB3 (human) (UniProt P54753)
# NEK7 (human) = NEK7 (human) (UniProt Q8TDX7)
# STK10 (human) = STK10 (human) (UniProt O94804)
# NLK (human) = NLK (human) (UniProt Q9UBE8)
# MAP2K6 (human) = MAP2K6 (human) (UniProt P52564)
# EPHB2 (human) = EPHB2 (human) (UniProt P29323)
# TSSK1B (human) = TSSK1B (human) (UniProt Q9BXA7)
# PTK6 (human) = PTK6 (human) (UniProt Q13882)
# DAPK3 (human) = DAPK3 (human) (UniProt O43293)
# PTK2 (human) = PTK2 (human) (UniProt Q05397)
# PDPK1 (human) = PDPK1 (human) (UniProt O15530)
# DCLK1 (human) = DCLK1 (human) (UniProt O15075)
# PIP4K2B (human) = PIP4K2B (human) (UniProt P78356)
# SGK110 (human) = SGK110 (human) (UniProt P0C264)
# STK16 (human) = STK16 (human) (UniProt O75716)
# TESK1 (human) = TESK1 (human) (UniProt Q15569)
# CDC2L2 (human) = CDC2L2 (human) (UniProt Q9UQ88)
# STK4 (human) = STK4 (human) (UniProt Q13043)
# RPS6KA4 KD1 (human) = RPS6KA4 KD1 (human) (UniProt O75676)
# Chain of LIMK2 (human) (P53671 whole entry, looked up): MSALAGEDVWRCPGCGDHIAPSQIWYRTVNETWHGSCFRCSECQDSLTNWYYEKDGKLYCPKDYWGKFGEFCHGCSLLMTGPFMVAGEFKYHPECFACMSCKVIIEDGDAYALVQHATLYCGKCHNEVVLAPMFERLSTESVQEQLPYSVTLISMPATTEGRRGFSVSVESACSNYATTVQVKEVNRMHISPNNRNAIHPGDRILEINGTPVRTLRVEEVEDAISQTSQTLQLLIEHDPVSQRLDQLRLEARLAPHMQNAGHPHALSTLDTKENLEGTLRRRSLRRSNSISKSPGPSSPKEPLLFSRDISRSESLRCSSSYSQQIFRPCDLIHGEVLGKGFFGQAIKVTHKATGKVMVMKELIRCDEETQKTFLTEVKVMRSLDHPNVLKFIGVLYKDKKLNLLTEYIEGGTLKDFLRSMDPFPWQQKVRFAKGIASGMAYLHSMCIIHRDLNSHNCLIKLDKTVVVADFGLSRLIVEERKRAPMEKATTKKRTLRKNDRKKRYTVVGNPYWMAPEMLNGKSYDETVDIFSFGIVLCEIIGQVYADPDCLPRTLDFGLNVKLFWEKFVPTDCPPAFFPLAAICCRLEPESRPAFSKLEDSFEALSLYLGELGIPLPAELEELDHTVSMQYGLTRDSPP
# Chain of MARK3 (human) (P27448 whole entry, looked up): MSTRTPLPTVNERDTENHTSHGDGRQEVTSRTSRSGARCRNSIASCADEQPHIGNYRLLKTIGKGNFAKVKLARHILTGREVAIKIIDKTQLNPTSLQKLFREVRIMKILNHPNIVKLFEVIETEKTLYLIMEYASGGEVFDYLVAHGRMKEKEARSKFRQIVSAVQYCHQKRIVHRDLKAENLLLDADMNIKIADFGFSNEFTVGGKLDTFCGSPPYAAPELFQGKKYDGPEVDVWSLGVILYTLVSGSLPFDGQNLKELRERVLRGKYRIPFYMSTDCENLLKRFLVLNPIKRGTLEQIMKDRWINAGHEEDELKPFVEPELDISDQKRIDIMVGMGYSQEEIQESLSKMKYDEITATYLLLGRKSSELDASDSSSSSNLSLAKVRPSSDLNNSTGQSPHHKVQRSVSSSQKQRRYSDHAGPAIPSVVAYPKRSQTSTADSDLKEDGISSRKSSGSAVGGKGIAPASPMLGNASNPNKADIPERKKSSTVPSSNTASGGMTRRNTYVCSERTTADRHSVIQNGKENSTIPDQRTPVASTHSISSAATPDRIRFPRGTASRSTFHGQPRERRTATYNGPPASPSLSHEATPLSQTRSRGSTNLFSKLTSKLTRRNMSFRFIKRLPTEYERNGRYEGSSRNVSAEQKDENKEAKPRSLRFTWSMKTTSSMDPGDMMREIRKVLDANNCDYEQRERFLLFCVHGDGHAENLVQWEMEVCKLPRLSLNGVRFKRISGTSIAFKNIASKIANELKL
# Chain of PDPK1 (human) (O15530 whole entry, looked up): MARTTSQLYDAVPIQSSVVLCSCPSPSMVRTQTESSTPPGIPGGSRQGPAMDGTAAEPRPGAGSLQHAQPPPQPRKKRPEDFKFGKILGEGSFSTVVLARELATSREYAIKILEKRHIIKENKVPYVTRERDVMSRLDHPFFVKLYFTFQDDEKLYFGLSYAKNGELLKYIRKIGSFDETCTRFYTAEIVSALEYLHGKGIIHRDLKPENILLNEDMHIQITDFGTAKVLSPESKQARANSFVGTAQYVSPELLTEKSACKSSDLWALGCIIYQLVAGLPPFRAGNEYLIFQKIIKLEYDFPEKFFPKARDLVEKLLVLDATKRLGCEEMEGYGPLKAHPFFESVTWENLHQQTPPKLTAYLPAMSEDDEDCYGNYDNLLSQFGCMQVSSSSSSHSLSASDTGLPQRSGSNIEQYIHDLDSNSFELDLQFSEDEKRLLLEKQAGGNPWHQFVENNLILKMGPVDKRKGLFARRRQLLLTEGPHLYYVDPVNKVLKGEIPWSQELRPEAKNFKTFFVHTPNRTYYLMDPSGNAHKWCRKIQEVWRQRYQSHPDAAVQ
# Chain of CDC2L2 (human) (Q9UQ88 whole entry, looked up): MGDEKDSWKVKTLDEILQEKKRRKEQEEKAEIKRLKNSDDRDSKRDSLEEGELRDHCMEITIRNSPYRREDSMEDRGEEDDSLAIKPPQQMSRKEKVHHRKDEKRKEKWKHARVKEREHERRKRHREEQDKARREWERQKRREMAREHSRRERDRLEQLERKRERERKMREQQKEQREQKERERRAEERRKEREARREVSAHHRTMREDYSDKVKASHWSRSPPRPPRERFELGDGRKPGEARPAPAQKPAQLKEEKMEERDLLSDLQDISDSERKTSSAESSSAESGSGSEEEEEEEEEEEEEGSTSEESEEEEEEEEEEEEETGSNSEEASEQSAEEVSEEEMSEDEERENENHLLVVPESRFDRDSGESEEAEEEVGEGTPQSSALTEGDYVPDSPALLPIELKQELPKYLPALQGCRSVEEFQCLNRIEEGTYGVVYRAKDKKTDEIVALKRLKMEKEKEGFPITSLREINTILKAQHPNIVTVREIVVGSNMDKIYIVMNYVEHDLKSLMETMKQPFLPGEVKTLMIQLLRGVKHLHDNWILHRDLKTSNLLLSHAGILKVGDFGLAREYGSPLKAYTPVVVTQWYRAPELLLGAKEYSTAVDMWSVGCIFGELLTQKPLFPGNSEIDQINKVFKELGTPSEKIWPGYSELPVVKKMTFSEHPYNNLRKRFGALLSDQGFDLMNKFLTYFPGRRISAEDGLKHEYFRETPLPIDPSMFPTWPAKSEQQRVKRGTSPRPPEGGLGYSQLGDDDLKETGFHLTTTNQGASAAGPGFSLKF
# Chain of ERBB4 (human) (Q15303 whole entry, looked up): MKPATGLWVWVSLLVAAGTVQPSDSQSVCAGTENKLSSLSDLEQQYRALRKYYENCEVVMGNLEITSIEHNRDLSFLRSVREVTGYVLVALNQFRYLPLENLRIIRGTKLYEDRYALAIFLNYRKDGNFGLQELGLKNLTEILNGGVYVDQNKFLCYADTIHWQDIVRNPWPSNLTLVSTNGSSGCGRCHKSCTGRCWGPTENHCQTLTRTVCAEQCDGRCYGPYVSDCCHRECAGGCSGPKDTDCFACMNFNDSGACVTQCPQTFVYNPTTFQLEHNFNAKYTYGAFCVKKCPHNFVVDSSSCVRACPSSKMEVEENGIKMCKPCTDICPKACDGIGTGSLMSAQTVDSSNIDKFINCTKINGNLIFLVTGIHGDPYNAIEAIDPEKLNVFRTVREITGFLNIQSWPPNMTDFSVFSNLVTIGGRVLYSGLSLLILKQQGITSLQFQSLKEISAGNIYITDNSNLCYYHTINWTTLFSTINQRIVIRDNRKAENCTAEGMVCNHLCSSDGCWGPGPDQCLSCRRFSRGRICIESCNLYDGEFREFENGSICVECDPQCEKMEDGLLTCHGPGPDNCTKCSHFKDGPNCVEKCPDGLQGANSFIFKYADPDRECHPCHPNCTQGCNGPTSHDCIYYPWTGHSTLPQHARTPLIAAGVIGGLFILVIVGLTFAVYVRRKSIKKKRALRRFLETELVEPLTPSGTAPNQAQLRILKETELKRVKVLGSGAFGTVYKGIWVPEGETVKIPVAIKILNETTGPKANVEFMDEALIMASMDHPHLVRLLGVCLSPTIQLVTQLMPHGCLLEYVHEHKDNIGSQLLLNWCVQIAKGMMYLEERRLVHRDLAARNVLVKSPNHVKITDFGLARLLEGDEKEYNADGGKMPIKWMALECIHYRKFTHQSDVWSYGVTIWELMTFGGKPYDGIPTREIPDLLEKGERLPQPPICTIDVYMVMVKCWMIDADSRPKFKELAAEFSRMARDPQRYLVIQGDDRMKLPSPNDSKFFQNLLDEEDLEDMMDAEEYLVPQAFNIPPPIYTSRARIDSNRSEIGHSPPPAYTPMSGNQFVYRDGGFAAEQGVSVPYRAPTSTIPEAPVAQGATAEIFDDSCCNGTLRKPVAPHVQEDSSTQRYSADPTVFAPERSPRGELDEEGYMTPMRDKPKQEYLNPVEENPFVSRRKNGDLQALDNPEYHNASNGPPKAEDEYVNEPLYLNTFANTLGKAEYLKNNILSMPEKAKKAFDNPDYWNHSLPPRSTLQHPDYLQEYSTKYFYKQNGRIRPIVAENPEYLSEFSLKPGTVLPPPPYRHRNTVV
# Chain of STK10 (human) (O94804 whole entry, looked up): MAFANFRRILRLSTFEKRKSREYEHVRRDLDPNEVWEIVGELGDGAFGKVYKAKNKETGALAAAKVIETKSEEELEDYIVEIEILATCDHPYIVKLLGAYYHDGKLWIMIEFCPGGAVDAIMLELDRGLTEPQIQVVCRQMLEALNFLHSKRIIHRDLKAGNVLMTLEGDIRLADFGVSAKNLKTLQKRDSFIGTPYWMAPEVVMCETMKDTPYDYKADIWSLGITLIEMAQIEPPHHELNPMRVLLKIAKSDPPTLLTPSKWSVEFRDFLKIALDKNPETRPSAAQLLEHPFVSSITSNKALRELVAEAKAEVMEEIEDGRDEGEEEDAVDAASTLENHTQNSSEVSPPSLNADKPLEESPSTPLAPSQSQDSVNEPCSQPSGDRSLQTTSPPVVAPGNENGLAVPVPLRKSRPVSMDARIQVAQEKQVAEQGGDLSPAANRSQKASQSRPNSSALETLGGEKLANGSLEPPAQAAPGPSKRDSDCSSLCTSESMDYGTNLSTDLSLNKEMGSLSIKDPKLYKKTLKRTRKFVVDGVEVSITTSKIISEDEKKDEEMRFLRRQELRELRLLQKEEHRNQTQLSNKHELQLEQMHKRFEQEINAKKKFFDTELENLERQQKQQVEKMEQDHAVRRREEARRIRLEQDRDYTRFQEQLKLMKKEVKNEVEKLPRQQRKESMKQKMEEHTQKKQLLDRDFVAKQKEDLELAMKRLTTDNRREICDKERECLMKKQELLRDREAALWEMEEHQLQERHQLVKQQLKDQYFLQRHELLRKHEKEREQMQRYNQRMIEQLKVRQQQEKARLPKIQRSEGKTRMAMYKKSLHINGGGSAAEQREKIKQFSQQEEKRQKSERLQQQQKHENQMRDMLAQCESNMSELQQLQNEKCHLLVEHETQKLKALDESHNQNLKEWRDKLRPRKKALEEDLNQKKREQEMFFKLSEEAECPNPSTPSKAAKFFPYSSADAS
SMILES,"kinase still bound, per cent of control (MAPKAPK5 (human))","kinase still bound, per cent of control (IKBKE (human))","kinase still bound, per cent of control (ERBB4 (human))","kinase still bound, per cent of control (PLK3 (human))","kinase still bound, per cent of control (ADCK3 (human))","kinase still bound, per cent of control (MAP3K3 (human))","kinase still bound, per cent of control (MAPK1 (human))","kinase still bound, per cent of control (MAPK6 (human))","kinase still bound, per cent of control (PIP5K1A (human))","kinase still bound, per cent of control (AKT1 (human))","kinase still bound, per cent of control (AKT2 (human))","kinase still bound, per cent of control (FES (human))","kinase still bound, per cent of control (CDK11B (human))","kinase still bound, per cent of control (TAOK3 (human))","kinase still bound, per cent of control (LTK (human))","kinase still bound, per cent of control (MAPK15 (human))","kinase still bound, per cent of control (MARK3 (human))","kinase still bound, per cent of control [1]","kinase still bound, per cent of control (MAPK11 (human))","kinase still bound, per cent of control (TGFBR2 (human))",also measured
O=C1Nc2ccc(I)cc2/C1=C/c1cc(Br)c(O)c(Br)c1,100%,86%,50%,86%,100%,92%,87%,100%,19%,100%,90%,95%,100%,87%,47%,61%,68%,79%,88%,56%,"kinase still bound, per cent of control (LIMK2 (human)): 77%; kinase still bound, per cent of control (EPHB3 (human)): 100%; kinase still bound, per cent of control (NEK7 (human)): 100%; kinase still bound, per cent of control (STK10 (human)): 100%; kinase still bound, per cent of control (NLK (human)): 56%; kinase still bound, per cent of control (MAP2K6 (human)): 71%; kinase still bound, per cent of control (EPHB2 (human)): 100%; kinase still bound, per cent of control (TSSK1B (human)): 65%; kinase still bound, per cent of control (PTK6 (human)): 85%; kinase still bound, per cent of control (DAPK3 (human)): 2.6%; kinase still bound, per cent of control (PTK2 (human)): 98%; kinase still bound, per cent of control (PDPK1 (human)): 100%; kinase still bound, per cent of control (DCLK1 (human)): 86%; kinase still bound, per cent of control (PIP4K2B (human)): 10%; kinase still bound, per cent of control (SGK110 (human)): 100%; kinase still bound, per cent of control (STK16 (human)): 90%; kinase still bound, per cent of control (TESK1 (human)): 100%; kinase still bound, per cent of control (CDC2L2 (human)): 73%; kinase still bound, per cent of control (STK4 (human)): 52%; kinase still bound, per cent of control (RPS6KA4 KD1 (human)): 87%"
CN(C)C/C=C/C(=O)Nc1cccc(Nc2ncc3c(n2)N(C)c2ccccc2C(=O)N3C)c1,85%,100%,100%,72%,74%,0.1%,100%,46%,9.9%,100%,99%,67%,100%,0%,100%,100%,10%,7.4%,89%,55%,"kinase still bound, per cent of control (LIMK2 (human)): 94%; kinase still bound, per cent of control (EPHB3 (human)): 88%; kinase still bound, per cent of control (NEK7 (human)): 100%; kinase still bound, per cent of control (STK10 (human)): 30%; kinase still bound, per cent of control (NLK (human)): 36%; kinase still bound, per cent of control (MAP2K6 (human)): 95%; kinase still bound, per cent of control (EPHB2 (human)): 100%; kinase still bound, per cent of control (TSSK1B (human)): 53%; kinase still bound, per cent of control (PTK6 (human)): 37%; kinase still bound, per cent of control (DAPK3 (human)): 45%; kinase still bound, per cent of control (PTK2 (human)): 14%; kinase still bound, per cent of control (PDPK1 (human)): 86%; kinase still bound, per cent of control (DCLK1 (human)): 4%; kinase still bound, per cent of control (PIP4K2B (human)): 36%; kinase still bound, per cent of control (SGK110 (human)): 0.25%; kinase still bound, per cent of control (STK16 (human)): 8.4%; kinase still bound, per cent of control (TESK1 (human)): 100%; kinase still bound, per cent of control (CDC2L2 (human)): 100%; kinase still bound, per cent of control (STK4 (human)): 49%; kinase still bound, per cent of control (RPS6KA4 KD1 (human)): 59%"
